This experiment has as its system Botrytis cinerea. As to the kind of experiment: Activity against Botrytis cinerea on bell pepper leaves (sprayed green bell pepper fruit disks, protective). The format is in vivo. The following applies: single active ingredient, 4 ppm in the spray liquor, inoculated 2 hours after spray coating dried, 18° C., 4 days, visual evaluation. The protocol:
The active ingredients, separately or together, are formulated as a 10% emulsion in a mixture of 63% by weight of cyclohexanone and 27% by eight of emulsifier, and diluted with water to the desired concentration.
Evaluation is carried out by determining the infected leaf areas in percent. These percentages are converted into efficacies. The efficacy (W) is calculated as follows using Abbot's formula: […]
α corresponds to the fungal infection of the treated plants in % and β corresponds to the fungal infection of the untreated (control) plants in % An efficacy of 0 means that the infection level of the treated plants corresponds to that of the untreated control plants; an efficacy of 100 means that the treated plants were not infected.
The expected efficacies of the mixtures of the active ingredients were determined using Colby's formula [R. S. Colby, Weeds 15, 20-22 (1967)] and compared with the observed efficacies.
Colby formula: E=x+Y−x·y/100
E expected efficacy, expressed in % of the untreated control, when using the mixture of the active ingredients A and B at the concentrations a and b x efficacy, expressed in % of the untreated control, when using active ingredient A at the concentration a y efficacy, expressed in % of the untreated control, when using active ingredient B at the concentration b Disks of green bell peppers were sprayed to runoff point with an aqueous preparation of active ingredient which had been prepared from a stock solution comprising 10% of active ingredient, 63% of cyclohexanone and 27% of emulsifier. 2 hours after the spray coating had dried on, the fruit disks were inoculated with a spore suspension of Botrytis cinerea containing 1.7×10^6 spores per ml of a 2% strength Biomalz solution. The inoculated fruit disks were subsequently incubated in humid chambers at 18° C. for 4 days. The Botyrtis infection on the diseased fruit disks was then evaluated visually.
Turning to `O=C(Nc1ccccc1-c1ccc(F)cc1)c1cccnc1Cl` [Compound I.1], the “Efficacy in % of the untreated control” value came to 0%. With `O=C(Nc1ccccc1-c1ccc(Cl)cc1)c1cccnc1Cl` [Compound I.2] the figure was 40%; with `CCCCNC(=O)n1c(NC(=O)OC)nc2ccccc21` [Compound II.a, methyl 1-(butylcarbamoyl)benzimidazol-2-ylcarbamate], 10%. `COC(=O)NC(=S)Nc1ccccc1NC(=S)NC(=O)OC` [Compound II.f, dimethyl 4,4′-(o-phenylene)-bis(3-thioallophanate)]: the “Efficacy in % of the untreated control” value was 10%.

Source of the values: patent US6569875B1, “Fungicide mixtures based on pyridin carboxamides and benzimidazoles or the precursors thereof” (priority 1997, dated 2003).
